Laboratory results as given in publication PMC10575921 (Nature Communications, 2023).
Where “and” joins values, the source holds several entries; their conditions need not be identical. Equal entries are not always repeated.

target: SARS-CoV-2 3CL^pro C145G (Severe acute respiratory syndrome coronavirus 2, UniProt P0DTD1, C3408G); type: binding

| Structure (SMILES) | -TΔS |
| --- | --- |
| CC(C)(C)NC(=O)N[C@H](C(=O)N1CC2(C[C@H]1C(=O)N[C@H](C#N)C[C@@H]1CCNC1=O)SCCS2)C(C)(C)C [compound 7] | -4.818 ± 0.268 kcal/mol and -4.818 kcal/mol |
| CC(C)(C)[C@H](NS(C)(=O)=O)C(=O)N1CC2(C[C@H]1C(=O)N[C@H](C#N)C[C@@H]1CCNC1=O)SCCS2 [compound 11] | -3.559 ± 0.332 kcal/mol and -3.559 kcal/mol |
| CC(C)(C)[C@H](NS(=O)(=O)C1CC1)C(=O)N1CC2(C[C@H]1C(=O)N[C@H](C#N)C[C@@H]1CCNC1=O)SCCS2 [compound 12] | -1.19 ± 0.325 kcal/mol and -1.19 kcal/mol |
| CC(C)(C)NC(=O)N[C@H](C(=O)N1C[C@H]2[C@@H]([C@H]1C(=O)N[C@H](C#N)C[C@@H]1CCNC1=O)C2(C)C)C(C)(C)C [compound 2] | -5.978 ± 0.1 kcal/mol and -5.978 kcal/mol |
| CC(C)(C)[C@H](NC(=O)C1(F)CC1)C(=O)N1CC2(C[C@H]1C(=O)N[C@H](C#N)C[C@@H]1CCNC1=O)SCCS2 [compound 10] | -2.18 ± 0.562 kcal/mol and -2.18 kcal/mol |
